Laboratory results from PMC7802075 (ACS Infectious Diseases, 2020).
Where two headings read alike, the source gives them in different places.

Target: T1, LmjIPCS (inositol phosphorylceramide synthase from L. major) (Leishmania major, UniProt E9AFX2)
T1 sequence (E9AFX2 1-338): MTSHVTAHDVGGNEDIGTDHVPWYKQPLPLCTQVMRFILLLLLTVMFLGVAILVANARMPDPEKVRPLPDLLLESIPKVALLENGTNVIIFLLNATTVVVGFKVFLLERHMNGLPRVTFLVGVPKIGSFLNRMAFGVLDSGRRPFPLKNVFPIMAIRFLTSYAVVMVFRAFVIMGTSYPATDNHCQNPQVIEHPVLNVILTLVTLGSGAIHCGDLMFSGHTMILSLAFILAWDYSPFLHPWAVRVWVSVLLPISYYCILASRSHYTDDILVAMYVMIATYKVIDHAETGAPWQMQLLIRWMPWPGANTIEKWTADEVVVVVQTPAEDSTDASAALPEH
Experiment: biochemical
Format: biochemical
Parameters: inhibition: dose or concentration left out as unconfirmed
Conditions: for inhibition at 20000 µM: read-out: 20mM inhibition LmjIPCS; for inhibition: read-out: inhibition LmjIPCS

[1] = NINDS set screen, single concentration printed as 20mM
[2] = screening of NINDS set, sheet Screen 1
[3] = NINDS set screen, compound at 20mM (so in the source)

## COc1cc(N)c(Cl)cc1C(=O)NC1CCN(Cc2ccccc2)CC1 [CLEBOPRIDE]
[1]
  20mM inhibition LmjIPCS: 47%

## C=C(C)[C@@H]1CC=C(CO)CC1 [PERILLYL ALCOHOL]
  inhibition at 20000 µM: 11%

## CCN(CC)CCOC(=O)C(c1ccccc1)c1ccccc1 [ADIPHENINE]
[1]
  20mM inhibition LmjIPCS: 51%

## O=C(O)CCNC(=O)c1ccccc1 [BETAMIPRON]
  inhibition at 20000 µM: -3.5%

## CCOC(=O)[C@H](CCc1ccccc1)N[C@@H](C)C(=O)N1CCC[C@H]1C(=O)O
  inhibition at 20000 µM: -20%

## CCCCCCNC(=O)n1cc(F)c(=O)[nH]c1=O [CARMOFUR]
  inhibition at 20000 µM: 14%

## Nc1c(Br)cc(Br)cc1CN[C@H]1CC[C@H](O)CC1 [AMBROXOL]
  20mM inhibition LmjIPCS: 53%

## Cn1c(=O)[nH]c2ncn(C)c2c1=O [PARAXANTHINE]
NINDS set screen
  inhibition: -5.66%

## CC(=O)O.CNC(=N)NCCC[C@H](N)C(=O)O [Ng-METHYL-L-ARGININE ACETATE]
  20mM inhibition LmjIPCS: 0.168%

## CC1=NS(=O)(=O)c2cc(Cl)ccc2N1 [DIAZOXIDE]
  inhibition at 20000 µM: 5%

## CC(=O)Oc1ccc(C(c2ccc(OC(C)=O)cc2)c2ccccn2)cc1 [BISACODYL]
  20mM inhibition LmjIPCS: 48%

## CCN(CC)CCNc1ccc(CO)c2sc3ccccc3c(=O)c12 [HYCANTHONE]
  20mM inhibition LmjIPCS: 46%

## O=S(=O)(O)CCS [MESNA]
  inhibition at 20000 µM: -0.783%

## Cc1cc(C(C)(C)C)cc(C)c1CC1=NCCN1 [XYLOMETAZOLINE]
[1]
  20mM inhibition LmjIPCS: 62%

## c1ccc2c(c1)sc1ccccc12 [DIBENZOTHIOPHENE]
  inhibition at 20000 µM: 32%

## Cc1cccc(C)c1NC(=O)C1CCCCN1C (stereo not shown) [MEPIVACAINE]
  20mM inhibition LmjIPCS: 55%

## CNC(C)C(O)c1ccccc1 (stereo not shown) [RACEPHEDRINE]
  20mM inhibition LmjIPCS: 41%

## NC(=O)c1ccc([N+](=O)[O-])cc1Cl [AKLOMIDE]
[2]
  inhibition: 4%

## CC[C@H]1CN2CCc3cc(OC)c(OC)cc3[C@@H]2C[C@@H]1C[C@H]1NCCc2cc(OC)c(OC)cc21 [EMETINE]
  inhibition at 20000 µM: 11%

## Cc1cc(C2CCCCC2)n(O)c(=O)c1 [CICLOPIROX OLAMINE]
[1]
  20mM inhibition LmjIPCS: 66%

## CN[C@@H]1[C@@H](O)[C@@H](O[C@@H]2[C@@H](O)[C@H](O[C@H]3OC(CN)=CC[C@H]3N)[C@@H](N)C[C@H]2N)OC[C@]1(C)O [SISOMICIN]
  inhibition at 20000 µM: 19%

## CC(=O)OCC(=O)[C@@]1(O)CC[C@H]2[C@@H]3CCC4=CC(=O)CC[C@]4(C)[C@@]3(F)[C@@H](O)C[C@@]21C [FLUDROCORTISONE ACETATE]
  inhibition at 20000 µM: 4.65%

## C[C@@]12C[C@@]3(O)O[C@@H](O1)[C@]1(COC(=O)c4ccccc4)[C@H]3C[C@@]12O[C@@H]1O[C@H](CO)[C@@H](O)[C@H](O)[C@H]1O [PEONIFLORIN]
  inhibition: 12%

## COc1ccc(-c2cc(C(F)F)nn2-c2ccc(S(N)(=O)=O)cc2)cc1F [DERACOXIB]
  inhibition at 20000 µM: 28%

## COc1ccc2cc([C@H](C)C(=O)O)ccc2c1 [NAPROXEN(+)]
[3]
  20mM inhibition LmjIPCS: 18%

## CCCOc1ccccc1-c1nc2nn[nH]c2c(=O)[nH]1 [ZAPRINAST]
[2]
  inhibition: 7%

## N.N.[Cl][Pt][Cl] [CISPLATIN]
[3]
  20mM inhibition LmjIPCS: 21%

## COc1c(N2C[C@@H]3CCCN[C@@H]3C2)c(F)cc2c(=O)c(C(=O)O)cn(C3CC3)c12 [MOXIFLOXACIN]
  inhibition at 20000 µM: 16%

## O=C1c2ccccc2C(=O)c2ccccc21 [ANTHRAQUINONE]
  inhibition at 20000 µM: 10%

## CCCCC1(COC(=O)CCC(=O)O)C(=O)N(c2ccccc2)N(c2ccccc2)C1=O [SUXIBUZONE]
  inhibition: 7%

## C=CCSCC=C [DIALLYL SULFIDE]
NINDS set screen
  inhibition: 17%

## COC(=O)Nc1nc2ccc(C(=O)c3ccccc3)cc2[nH]1 [MEBENDAZOLE]
  inhibition: 18%

## NNC(=O)c1ccncc1 [ISONIAZID]
[2]
  inhibition: 9%

## CCCCOc1cc(C(=O)NCCN(CC)CC)c2ccccc2n1 [DIBUCAINE]
  20mM inhibition LmjIPCS: 63%

## C[C@@H]1O[C@@H](O[C@H]2[C@H](Oc3cc(O)c4c(c3)O[C@H](c3ccc(O)cc3)CC4=O)O[C@H](CO)[C@@H](O)[C@@H]2O)[C@H](O)[C@H](O)[C@H]1O [NARINGIN]
  inhibition at 20000 µM: 4.67%

## Oc1ccc(Cl)cc1 [PARACHLOROPHENOL]
  inhibition at 20000 µM: 12%

## CC(=O)NCCCCCC(=O)O [ACEXAMIC ACID]
[2]
  inhibition: 6%

## Cc1c(OCC(F)(F)F)ccnc1C[S+]([O-])c1nc2ccccc2[nH]1 (stereo not shown) [LANSOPRAZOLE]
[3]
  20mM inhibition LmjIPCS: 23%

## CCN(CC)C(C)CN1c2ccccc2Sc2ccccc21 (stereo not shown) [ETHOPROPAZINE]
  20mM inhibition LmjIPCS: 63%

## CC(C)=CC1C(C(=O)O)C1(C)C (stereo not shown) [CHRYSANTHEMIC ACID]
[1]
  20mM inhibition LmjIPCS: 69%
